Experimental data: patent US20220306647A1, “NOVEL INDOLE-2-CARBOXAMIDES ACTIVE AGAINST THE HEPATITUS B VIRUS (HBV)” (AICURIS GMBH & CO. KG, priority 2019, published 2022)

Columns and labels:
HBV (HepAD38 cells) = assay: HBV replication assay: determination of HBV DNA from the supernatants of HepAD38 cells; assay type: cell-based; conditions: Hepatitis B virus, 144 h, HBV DNA in HepAD38 supernatant at day 6, qPCR, read-out: Cell activity
Procedure: Determination of HBV DNA from the Supernatants of HepAD38 Cells
The anti-HBV activity was analysed in the stable transfected cell line HepAD38, which has been described to secrete high levels of HBV virion particles (Ladner et al., 1997). In brief, HepAD38 cells were cultured at 37° C. at 5% CO2 and 95% humidity in 200 μl maintenance medium, which was Dulbecco's modified Eagle's medium/Nutrient Mixture F-12 (Gibco, Karlsruhe), 10% fetal bovine serum (PAN Biotech Aidenbach) supplemented with 50 μg/ml penicillin/streptomycin (Gibco, Karlsruhe), 2 mM L-glutamine (PAN Biotech, Aidenbach), 400 μg/ml G418 (AppliChem, Darmstadt) and 0.3 μg/ml tetracycline. Cells were subcultured once a week in a 1:5 ratio, but were usually not passaged more than ten times. For the assay 60,000 cells were seeded in maintenance medium without any tetracycline into each well of a 96-well plate and treated with serial half-log dilutions of test compound. To minimize edge effects the outer 36 wells of the plate were not used but were filled with assay medium. On each assay plate six wells for the virus control (untreated HepAD38 cells) and six wells for the cell control (HepAD38 cells treated with 0.3 μg/ml tetracycline) were allocated, respectively. In addition, one plate set with reference inhibitors like BAY 41-4109, entecavir, and lamivudine instead of screening compounds were prepared in each experiment. In general, experiments were performed thrice in triplicates. At day 6 HBV DNA from 100 μl filtrated cell culture supernatant (AcroPrep Advance 96 Filter Plate, […] Supor membran, PALL GmbH, Dreieich) was automatically purified on the MagNa Pure LC instrument using the MagNA Pure 96 DNA and Viral NA Small Volume Kit (Roche Diagnostics, Mannheim) according to the instructions of the manufacturer. EC50 values were calculated from relative copy numbers of HBV DNA In brief, 5 μl of the 100 μl eluate containing HBV DNA were subjected to PCR LC480 Probes Master Kit (Roche) together with 1 μM antisense primer […], 0.5 μM sense primer […], 0.3 μM hybprobes […]-FL and LC640-[…]-PH (TIBMolBiol, Berlin) to a final volume of 12.5 μl. The PCR was performed on the Light Cycler 480 real time system (Roche Diagnostics, Mannheim) using the following protocol: Pre-incubation for 1 min at 95° C., amplification: 40 cycles×(10 sec at 95° C., 50 sec at 60° C., 1 sec at 70° C.), cooling for 10 sec at 40° C. Viral load was quantitated against known standards using HBV plasmid DNA of pCH-9/3091 (Nassal et al., 1990, Cell 63: 1357-1363) and the LightCycler 480 SW 1.5 software (Roche Diagnostics, Mannheim) and EC50 values were calculated using non-linear regression with GraphPad Prism 6 (GraphPad Software Inc., La Jolla, USA).

[1] = target: T1, HBV core protein (C-terminal truncated core protein, 149 amino acids of the N-terminal assembly domain, BODIPY-FL labelled) (UniProt P03146); assay: Biochemical capsid assembly assay (fluorescence quenching); conditions: assembly started with NaCl, fluorescence read after 6 min, read-out: Assembly activity
T1 construct: fused on or other part: A single cysteine added after residue 149, at position 150; It carries the BODIPY-FL maleimide label
Procedure: The screening for assembly effector activity was done based on a fluorescence quenching assay published by Zlotnick et al. (2007). The C-terminal truncated core protein containing 149 amino acids of the N-terminal assembly domain fused to a unique cysteine residue at position 150 and was expressed in E. coli using the pET expression system (Merck Chemicals, Darmstadt). Purification of core dimer protein was performed using a sequence of size exclusion chromatography steps. In brief, the cell pellet from 1 L BL21 (DE3) Rosetta2 culture expressing the coding sequence of core protein cloned NdeI/XhoI into expression plasmid pET21b was treated for 1 h on ice with a native lysis buffer (Qproteome Bacterial Protein Prep Kit; Qiagen, Hilden). After a centrifugation step the supernatant was precipitated during 2 h stirring on ice with 0.23 g/ml of solid ammonium sulfate. Following further centrifugation the resulting pellet was resolved in buffer A (100 mM Tris, pH 7.5; 100 mM NaCl; 2 mM DTT) and was subsequently loaded onto a buffer A equilibrated CaptoCore 700 column (GE HealthCare, Frankfurt). The column flow through containing the assembled HBV capsid was dialyzed against buffer N (50 mM NaHCO3 pH 9.6; 5 mM DTT) before urea was added to a final concentration of 3M to dissociate the capsid into core dimers for 1.5 h on ice. The protein solution was then loaded onto a 1L Sephacryl S300 column. After elution with buffer N core dimer containing fractions were identified by SDS-PAGE and subsequently pooled and dialyzed against 50 mM HEPES pH 7.5; 5 mM DTT. To improve the assembly capacity of the purified core dimers a second round of assembly and disassembly starting with the addition of 5 M NaCl and including the size exclusion chromatography steps described above was performed. From the last chromatography step core dimer containing fractions were pooled and stored in aliquots at concentrations between 1.5 to 2.0 mg/ml at −80° C.
Immediately before labelling the core protein was reduced by adding freshly prepared DTT in a final concentration of 20 mM. After 40 min incubation on ice storage buffer and DTT was removed using a Sephadex G-25 column (GE HealthCare, Frankfurt) and 50 mM HEPES, pH 7.5. For labelling 1.6 mg/ml core protein was incubated at 4° C. and darkness overnight with BODIPY-FL maleimide (Invitrogen, Karlsruhe) in a final concentration of 1 mM. After labelling the free dye was removed by an additional desalting step using a Sephadex G-25 column. Labelled core dimers were stored in aliquots at 4° C. In the dimeric state the fluorescence signal of the labelled core protein is high and is quenched during the assembly of the core dimers to high molecular capsid structures. The screening assay was performed in black 384 well microtiter plates in a total assay volume of 10 μl using 50 mM HEPES pH 7.5 and 1.0 to 2.0 μM labelled core protein. Each screening compound was added in 8 different concentrations using a 0.5 log-unit serial dilution starting at a final concentration of 100 μM, 31.6 μM or 10 μM, In any case the DMSO concentration over the entire microtiter plate was 0.5%. The assembly reaction was started by the injection of NaCl to a final concentration of […] which induces the assembly process to approximately 25% of the maximal quenched signal. 6 min after starting the reaction the fluorescence signal was measured using a Clariostar plate reader (BMG Labtech, Ortenberg) with an excitation of 477 nm and an emission of 525 nm. As 100% and 0% assembly control HEPES buffer containing 2.5 M and 0 M NaCl was used. Experiments were performed thrice in triplicates. EC50 values were calculated by non-linear regression analysis using the Graph Pad Prism 6 software (GraphPad Software, La Jolla, USA).

T1 sequence (P03146 whole entry, the tested form may be a part): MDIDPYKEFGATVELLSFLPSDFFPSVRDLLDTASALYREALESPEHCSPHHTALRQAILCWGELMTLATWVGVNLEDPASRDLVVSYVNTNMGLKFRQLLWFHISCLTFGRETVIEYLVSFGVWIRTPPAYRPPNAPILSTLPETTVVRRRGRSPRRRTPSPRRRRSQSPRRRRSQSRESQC

| SMILES | EC50 (HBV (HepAD38 cells)) [nM] | IC50 [1] [µM] |
| --- | --- | --- |
| O=C(c1cc2ccccc2[nH]1)N1CCc2onc(C(=O)N3CCCC34CC4)c2C1 [Example 1, 2-(3-{4-azaspiro[2.4]heptane-4-carbonyl}-4H,5H,6H,7H-[1,2]oxazolo[4,5-c]pyridine-5-carbonyl)-1H-indole] | 1000 to 10000 | – |
| CN(C(=O)c1noc2c1CN(C(=O)c1cc3ccccc3[nH]1)CC2)C1(c2cocn2)CC1 [Example 2, 5-(1H-indole-2-carbonyl)-N-methyl-N-[1-(1,3-oxazol-4-yl)cyclopropyl]-4H,5H,6H,7H-[1,2]oxazolo[4,5-c]pyridine-3-carboxamide] | < 1000 | < 5 |
| CCc1cc(F)cc2[nH]c(C(=O)N3CCc4onc(C(=O)N(C)C5(COC)CC5)c4C3)cc12 [Example 4, 5-(4-ethyl-6-fluoro-1H-indole-2-carbonyl)-N-[1-(methoxymethyl)cyclopropyl]-N-methyl-4H,5H,6H,7H-[1,2]oxazolo[4,5-c]pyridine-3-carboxamide] | < 1000 | < 5 |
| CN(C(=O)c1noc2c1CN(C(=O)c1cc3ccccc3[nH]1)CC2)C1(COC(=O)c2ccccc2)CC1 [Example 9, {1-[N-methyl-5-(1H-indole-2-carbonyl)-4H,5H,6H,7H-[1,2]oxazolo[4,5-c]pyridine-3-amido]cyclopropyl}methyl benzoate] | < 1000 | – |
| O=C(c1cc2ccccc2[nH]1)N1CCc2onc(C(=O)N3CCC(F)(F)C3)c2C1 [Example 25, 2-[3-(3,3-difluoropyrrolidine-1-carbonyl)-4H,5H,6H,7H-[1,2]oxazolo[4,5-c]pyridine-5-carbonyl]-1H-indole] | 1000 to 10000 | – |
| C[C@@H](NC(=O)c1ncn2c1CN(C(=O)c1cc3ccccc3[nH]1)CC2)C(F)(F)F [Example 138, 7-(1H-indole-2-carbonyl)-N-[(2R)-1,1,1-trifluoropropan-2-yl]-5H,6H,7H,8H-imidazo[1,5-a]pyrazine-1-carboxamide] | – | < 5 |
| CN1CCCn2nc3c(c2C1=O)CN(C(=O)c1cc2ccccc2[nH]1)CC3 [Example 139, 4-(1H-indole-2-carbonyl)-13-methyl-4,8,9,13-tetraazatricyclo[7.5.0.0^2,7]tetradeca-1,7-dien-14-one] | – | < 5 |
| O=C(c1cc2ccccc2[nH]1)N1CCc2nn3c(c2C1)C(=O)N(CCO)C1(CC1)C3 [Example 140, 4′-(2-hydroxyethyl)-12′-(1H-indole-2-carbonyl)-4′,7′,8′,12′-tetraazaspiro[cyclopropane-1,5′-tricyclo[7.4.0.0^2,7]tridecane]-1′,8′-dien-3′-one] | – | < 5 |
| O=C(NC1(COC(F)F)CC1)c1onc2c1CN(C(=O)c1cc3cc(F)c(F)cc3[nH]1)CC2 [Example 141, 5-(5,6-difluoro-1H-indole-2-carbonyl)-N-{1-[(difluoromethoxy)methyl]cyclopropyl}-4H,5H,6H,7H-[1,2]oxazolo[4,3-c]pyridine-3-carboxamide] | – | < 5 |
| O=C(NC1(COC(F)F)CC1)c1onc2c1CN(C(=O)c1cc3c(F)c(F)ccc3[nH]1)CC2 [Example 143, 5-(4,5-difluoro-1H-indole-2-carbonyl)-N-{1-[(difluoromethoxy)methyl]cyclopropyl}-4H,5H,6H,7H-[1,2]oxazolo[4,3-c]pyridine-3-carboxamide] | – | < 5 |
| O=C(NC1(COC(F)F)CC1)c1onc2c1CN(C(=O)c1cc3cc(F)c(Cl)cc3[nH]1)CC2 [Example 144, 5-(6-chloro-5-fluoro-1H-indole-2-carbonyl)-N-{1-[(difluoromethoxy)methyl]cyclopropyl}-4H,5H,6H,7H-[1,2]oxazolo[4,3-c]pyridine-3-carboxamide] | – | < 5 |
| CC1CCn2nc3c(c2C(=O)N1C)CN(C(=O)c1cc2ccccc2[nH]1)CC3 (stereo not drawn) [Example 145, 4-(1H-indole-2-carbonyl)-12,13-dimethyl-4,8,9,13-tetraazatricyclo[7.5.0.0^2,7]tetradeca-1,7-dien-14-one] | – | < 5 |
| O=C(c1cc2ccccc2[nH]1)N1CCc2nn3c(c2C1)C(=O)N(CCOC(F)(F)F)C1(CC3)CC1 [Example 146, 4′-(1H-indole-2-carbonyl)-13′-[2-(trifluoromethoxy)ethyl]-4′,8′,9′,13′-tetraazaspiro[cyclopropane-1,12′-tricyclo[7.5.0.0^2,7]tetradecane]-1′,7′-dien-14′-one] | – | < 5 |
| O=C(c1cc2ccccc2[nH]1)N1CCc2nn3c(c2C1)C(=O)N(CC(F)F)C1(CC3)CC1 [Example 147, 13′-(2,2-difluoroethyl)-4′-(1H-indole-2-carbonyl)-4′,8′,9′,13′-tetraazaspiro[cyclopropane-1,12′-tricyclo[7.5.0.0^2,7]tetradecane]-1′,7′-dien-14′-one] | – | < 5 |
| O=C(c1cc2ccccc2[nH]1)N1CCc2nn3c(c2C1)C(=O)N(CC(F)(F)F)C1(CC3)CC1 [Example 148, 4′-(1H-indole-2-carbonyl)-13′-(2,2,2-trifluoroethyl)-4′,8′,9′,13′-tetraazaspiro[cyclopropane-1,12′-tricyclo[7.5.0.0^2,7]tetradecane]-1′,7′-dien-14′-one] | – | < 5 |
| COC(=O)CN1C(=O)c2c3c(nn2CCC12CC2)CCN(C(=O)c1cc2ccccc2[nH]1)C3 [Example 149, methyl 2-[4′-(1H-indole-2-carbonyl)-14′-oxo-4′, 8′,9′,13′-tetraazaspiro[cyclopropane-1,12′-tricyclo[7.5.0.0^2,7]tetradecane]-1′,7′-dien-13′-yl]acetate] | – | < 5 |
